{"source": "patent US11718642B2", "about": "“Compositions and methods for treating CNS disorders” (Sage Therapeutics, Inc., priority 2018, dated 2023)", "note": "pIC50: −log10 of the molar value."}
{"biological_target": "GABAA receptor", "assay": "Steroid inhibition of [35S]-TBPS binding, rat brain cortical membranes", "details": "Table I-1, 3 nM [35S]-TBPS, in the presence of 5 mM GABA", "description": "(§1) [^35S]-t-Butylbicyclophosphorothionate (TBPS) binding assays using rat brain cortical […] membranes in the presence of 5 mM GABA has been described (Gee et al, J. Pharmacol. Exp. Ther. 1987, 241, 346-353; Hawkinson et al, Mol. Pharmacol. 1994, 46, 977-985; Lewin, A. H et al., Mol. Pharmacol. 1989, 35, 189-194).\n(§2) Briefly, cortices are rapidly removed following decapitation of carbon dioxide-anesthetized Sprague-Dawley rats (200-250 g). The cortices are homogenized in 10 volumes of ice-cold 0.32 M sucrose using a glass/teflon homogenizer and centrifuged at 1500×g for 10 min at 4° C. The resultant supernatants are centrifuged at 10,000×g for 20 min at 4° C. to obtain the P2 pellets. The P2 pellets are resuspended in 200 mM NaC/50 mM Na—K phosphate pH 7.4 buffer and centrifuged at 10,000×g for 10 min at 4° C. This washing procedure is repeated twice and the pellets are resuspended in 10 volumes of buffer. Aliquots ([…]) of the membrane suspensions are incubated with 3 nM [^35S]-TBPS and […] aliquots of test drug dissolved in dimethyl sulfoxide (DMSO) (final 0.5%) in the presence of 5 mM GABA. The incubation is brought to a final volume of 1.0 mL with buffer. Nonspecific binding is determined in the presence of […] unlabeled TBPS and ranged from 15 to 25%. Following a 90 min incubation at room temp, the assays are terminated by filtration through glass fiber filters (Schleicher and Schuell No. 32) using a cell harvester (Brandel) and rinsed three times with ice-cold buffer. Filter bound radioactivity is measured by liquid scintillation spectrometry. Non-linear curve fitting of the overall data for each drug averaged for each concentration is done using Prism (GraphPad). […] The concentration of test compound producing 50% inhibition (IC50) of specific binding and the maximal extent of inhibition (Imax) are determined for the individual experiments with the same model used for the overall data and then the means±SEM.s of the individual experiments are calculated.\n(§3) Various compounds are or can be screened to determine their potential as modulators of [35S]-TBPS binding in vitro. These assays are or can be performed in accordance with the above."}
{"smiles": "CC(=O)[C@H]1CC[C@H]2[C@@H]3COC4C[C@](C)(O)CC[C@@H]4[C@H]3CC[C@]12C", "note": "(stereo in doubt) [I-A15, 1-((1S,3aS,3bR,5aS,7R,9aR,9bS,11aS)-7-hydroxy-7,11a-dimethylhexadecahydroindeno[4,5-c]chromen-1-yl)ethan-1-one]", "pIC50": "5.00 to 6.00"}
{"smiles": "C[C@@]1(O)CC[C@@H]2[C@H]3CC[C@]4(C)[C@@H](C(=O)Cn5cc(C#N)cn5)CC[C@H]4[C@@H]3CO[C@@H]2C1", "note": "[I-A17, 1-(2-((1S,3aS,3bR,5aS,7R,9aR,9bS,1aS)-7-hydroxy-7,11a-dimethylhexadecahydroindeno[4,5-c]chromen-1-yl)-2-oxoethyl)-1H-pyrazole-4-carbonitrile]", "pIC50": "5.00 to 6.00"}
{"biological_target": "GABAA receptor", "assay": "Steroid inhibition of [35S]-TBPS binding, rat brain cortical membranes", "details": "Table II-2, 3 nM [35S]-TBPS, in the presence of 5 mM GABA", "description": "as §1, §2, §3"}
{"smiles": "C[C@@]1(O)CC[C@H]2[C@H](CC[C@@H]3[C@@H]2CC[C@]2(C)[C@@H](C(=O)Cn4cc(C#N)cn4)OC[C@@H]32)C1", "note": "[II-A13b, 1-(2-((1S,3aS,3bR,5aR,7R,9aS,9bR,11aS)-7-hydroxy-7,11a-dimethylhexadecahydrophenanthro[1,2-c]furan-1-yl)-2-oxoethyl)-1H-pyrazole-4-carbonitrile]", "pIC50": "5.00 to 6.00"}
{"smiles": "CC(=O)[C@H]1OC[C@H]2[C@@H]3CC[C@@H]4C[C@](C)(O)CC[C@@H]4[C@H]3CC[C@]12C", "note": "[II-A11b, 1-((1S,3aS,3bR,5aR,7R,9aS,9bR,11aS)-7-hydroxy-7,11a-dimethylhexadecahydrophenanthro[1,2-c]furan-1-yl)ethan-1-one]", "pIC50": "≤ 5.00"}
{"smiles": "C[C@@]1(O)CC[C@H]2[C@H](CC[C@@H]3[C@@H]2CC[C@]2(C)[C@@H](C(=O)Cn4cc(C#N)cn4)COC[C@@H]32)C1", "note": "[II-B14, 1-(2-((1R,4aS,4bR,6aR,8R,10aS,10bR,12aS)-8-hydroxy-8,12a-dimethylhexadecahydro-2H-naphtho[1,2-h]isochromen-1-yl)-2-oxoethyl)-1H-pyrazole-4-carbonitrile]", "pIC50": "6.00 to 7.00"}
{"smiles": "CC(=O)[C@H]1COC[C@H]2[C@@H]3CC[C@@H]4C[C@](C)(O)CC[C@@H]4[C@H]3CC[C@]12C", "note": "[II-B12, 1-((1R,4aS,4bR,6aR,8R,10aS,10bR,12aS)-8-hydroxy-8,12a-dimethylhexadecahydro-2H-naphtho[1,2-h]isochromen-1-yl)ethan-1-one]", "pIC50": "6.00 to 7.00"}
